Data published in patent US20250228865A1, “COMPOUNDS FOR ENHANCING READ THROUGH OF GENES CONTAINING PREMATURE TERMINATION CODONS AND METHODS FOR MAKING AND USING THE SAME” (Sanofi US Services Inc., priority 2022, published 2025).
Read-outs that look alike come from different tables or passages of the source.

System: recombinant human CFTR carrying the premature stop codon (PTC) mutation R1162X
Assay: CFTR-PTC mutant translation readthrough, Nanoluc tagged CFTR luminescence (R1162X cell line)
Assay type: cell-based
Details: for CFTR R1162X ACTIVITY Fold 10 μM G-418: fold over 10 μM G-418, in combination with G418
Experimental: 16HBE human bronchial epithelial cells (stably over-expressing recombinant human CFTR carrying the premature stop codon (PTC) mutation G542X or R1162X along with a Nanoluc tag incorporated into the CFTR channel within extracellular loop 4 in G542X cell line or C-terminus end in the R1162X cell line were seeded at 0.01×10^6 cells/well and grown in Minimal Essential Medium (MEM) as monolayers in 384 well plates and incubated at 37° C. with 5% CO2. Media was changed every other day until day of experiment. Agents to be evaluated were made up in separate 384 well, polypropylene plates at a 2X the final desired test concentration. Test agent 10-point concentration response curves were constructed using the Labcyte Echo 555 acoustic dispenser. Test agents were typically tested at a max final test concentrations of 50 μM with sequential 2-fold lower concentrations below this in the absence or presence of a fixed 10 μM concentration of the aminoglycoside G418 made up in MEM growth media (reduced Serum Media+HEPES Buffer+2.4 g/L Sodium Bicarbonate+L-Glutamine containing CFTR corrector VX-809 (3 μM)). Treatment with 10 μM G418 alone produced approximately 10% of the response observed with a maximally effective concentration of G418 (typically 125-250 μM). Test agent effects in presence of 10 μM G418 were compared to control wells on the plate containing a maximally effective concentration of G418 (typically 125-250 μM) made up in the same media. 25 ul of test agents/control solutions were transferred from the compound plate to the cell plate, which already contained 25 ul/well of cell plating media, using an Integra Viaflo 384. Cell plates were incubated with the compounds for 48 hours, at which time they were processed using Nanoluc luminescence Kit (Promega Nano-Glo Live Cell Assay System) to measure CFTR-PTC mutant translation readthrough. Luminescence was measured as follows. Cell plates were removed from the incubator and allowed to equilibrate to room temperature for 20 minutes. Media was removed from all wells and the plates were blotted to remove excess remaining volume. Nano-Glo Live Cell Substrate was diluted 1:20 in the appropriate amount of Nano-Glo LCS Dilution Buffer to accommodate the number of cell plates being tested. The substrate/dilution buffer mix was then diluted 1:3 with MEM media to make the appropriate volume for the number of plates being tested. The substrate/dilution buffer/OptiMEM mix was added across the Nanoluc testing cell plates and the plates were read for luminescence signal immediately. Test agent effects on CFTR translation readthrough was determined by normalizing any observed increase in luminescence induced by 48 hours pretreatment with test compound to the magnitude of luminescence increase produced by pretreatment with a maximally effective concentration of the reference readthrough enhancing agent G418 (125-250 μM).

[1] = in combination with G418, 16HBE cells, read-out: CFTR R1162X ACTIVITY EC50
[2] = read-out: CFTR R1162X ACTIVITY EC50, in combination with G418, 16HBE cells

Row | SMILES | CFTR R1162X ACTIVITY Fold 10 μM G-418 | EC50 [1] [µM] | EC50 [2] [µM]
1 | Cc1cccc(C(F)(F)F)c1COc1cnc(N2CCN(C)[C@@H](CN)C2)nc1 | C′ (C′ = <5X) | > 10 | –
2 | OCc1cn(-c2ncc(OCc3c(Cl)cc(F)cc3Cl)cn2)cn1 | C′ (C′ = <5X) | 1 to 10 | –
3 | OCc1ncn(-c2ccc(OCc3c(Cl)cccc3Cl)cn2)n1 [Example 337, (1-{5-[(2,6-dichlorophenyl)methoxy]pyridin-2-yl}-1,2,4-triazol-3-yl) methanol] | C′ (C′ = <5X) | < 1 | –
4 | CCc1cccc(C(F)(F)F)c1COc1cnc(N2C[C@@H](CO)NC2=O)nc1 | C′ (C′ = <5X) | 1 to 10 | –
5 | Cc1cccc(C(F)(F)F)c1COc1cnc(N2C[C@@H](CO)NC2=O)nc1 [(4S)-4-(hydroxymethyl)-1-(5-{[2-methyl-6-(trifluoromethyl)phenyl]methoxy}pyrimidin-2-yl)imidazolidin-2-one] | C′ (C′ = <5X) | 1 to 10 | –
6 | OCc1cnn(-c2ncc(OCc3c(Cl)ccc(F)c3Cl)cn2)n1 | C′ (C′ = <5X) | < 1 | –
7 | O=C1CN(c2ccc(OCc3c(Cl)ccc(F)c3C(F)(F)F)cn2)C(=O)N1 | A′ (A′ = ≥10X) | < 1 | –
8 | OCc1ncn(-c2ncc(CCc3c(Cl)cccc3Cl)cn2)n1 | C′ (C′ = <5X) | 1 to 10 | –
9 | OCc1ccn(-c2ncc(OCc3c(Cl)cccc3C(F)(F)F)cn2)n1 | C′ (C′ = <5X) | < 1 | –
10 | OCc1cn(-c2ncc(OCc3c(C(F)(F)F)ccc(F)c3Cl)cn2)cn1 | C′ (C′ = <5X) | < 1 | –
11 | O=C1CN(c2ccc(OCc3c(Cl)cccc3Cl)nn2)C(=O)N1 [Compound 351, 1-{6-[(2,6-dichlorophenyl)methoxy]pyridazin-3-yl}imidazolidine-2,4-dione] | C′ (C′ = <5X) | 1 to 10 | –
12 | O=C1OC(CO)CN1c1ccc(OCc2c(Cl)ccc(F)c2Cl)cn1 (centres unmarked) [3-{5-[(2,6-dichloro-3-fluorophenyl)methoxy]pyridin-2-yl}-5-(hydroxymethyl)-1,3-oxazolidin-2-one] | C′ (C′ = <5X) | 1 to 10 | –
13 | O=C1CN(c2ccc(OCc3c(Cl)cccc3Cl)cn2)C(=O)N1 [Compound 332, 1-{5-[(2,6-dichlorophenyl)methoxy]pyridin-2-yl}imidazolidine-2,4-dione] | C′ (C′ = <5X) | < 1 | –
14 | FC(F)(F)c1cccc(Cl)c1COc1cnc(N2CCn3c(nnc3C(F)(F)F)C2)nc1 | C′ (C′ = <5X) | 1 to 10 | –
15 | O=C1CN(c2ccc(OCc3c(Cl)cc(F)cc3Cl)cn2)C(=O)N1 [Compound 349, 1-{5-[(2,6-dichloro-4-fluorophenyl)methoxy]pyridin-2-yl}imidazolidine-2,4-dione] | C′ (C′ = <5X) | 1 to 10 | –
16 | OCc1ccn(-c2ncc(OCc3c(C(F)(F)F)cccc3C(F)(F)F)cn2)n1 | A′ (A′ = ≥10X) | < 1 | –
17 | OCc1ncn(-c2ncc(OCc3c(Cl)ccc(F)c3C(F)(F)F)cn2)n1 | A′ (A′ = ≥10X) | < 1 | –
18 | OCc1ncn(-c2ncc(OCc3c(C(F)(F)F)ccc(F)c3Cl)cn2)n1 | A′ (A′ = ≥10X) | 1 to 10 | –
19 | OCc1ccn(-c2cnc(OCc3c(Cl)cccc3Cl)cn2)n1 [Example 339, (1-{5-[(2,6-dichlorophenyl)methoxy]pyrazin-2-yl}pyrazol-3-yl) methanol] | C′ (C′ = <5X) | – | 1 to 10
20 | O=C1N[C@H](CO)CN1c1ncc(OCc2c(C(F)(F)F)cccc2C(F)(F)F)cn1 [(4S)-1-(5-{[2,6-bis(trifluoromethyl)phenyl]methoxy}pyrimidin-2-yl)-4-(hydroxymethyl)imidazolidin-2-one] | C′ (C′ = <5X) | > 10 | –
21 | O=C1N[C@H](CO)CN1c1ccc(OCc2c(Cl)cccc2C(F)(F)F)cn1 | C′ (C′ = <5X) | < 1 | –
22 | O=C1N[C@H](CO)CN1c1ccc(OCc2c(C(F)(F)F)cccc2C(F)(F)F)cn1 | C′ (C′ = <5X) | < 1 | –

Row | SMILES | CFTR R1162X ACTIVITY Fold 10 μM G-418 | EC50 [1] [µM] | EC50 [2] [µM]
23 | O=C1CN(c2ncc(OCc3c(Cl)cccc3C(F)(F)F)cn2)C1 [Compound 355, 1-(5-{[2-chloro-6-(trifluoromethyl)phenyl]methoxy}pyrimidin-2-yl)azetidin-3-one] | A′ (A′ = ≥10X) | < 1 | –
24 | O=C1CN(c2cnc(OCc3c(Cl)cccc3Cl)cn2)C(=O)N1 [Compound 336, 1-{5-[(2,6-dichlorophenyl)methoxy]pyrazin-2-yl}imidazolidine-2,4-dione] | C′ (C′ = <5X) | 1 to 10 | –
25 | O=C1CN(c2cnc(OCc3c(Cl)cccc3C(F)(F)F)cn2)C(=O)N1 | C′ (C′ = <5X) | 1 to 10 | –
26 | O=C1CN(c2ccc(OCc3c(Cl)ccc(F)c3Cl)cn2)C(=O)N1 [Compound 341, 1-{5-[(2,6-dichloro-3-fluorophenyl)methoxy]pyridin-2-yl}imidazolidine-2,4-dione] | C′ (C′ = <5X) | < 1 | –
27 | OCc1cn(-c2ncc(OCc3c(Cl)ccc(F)c3Cl)cn2)nn1 | C′ (C′ = <5X) | 1 to 10 | –
28 | OCc1cncn1-c1ncc(OCc2c(Cl)cccc2Cl)cn1 [Example 362, (3-{5-[(2,6-dichlorophenyl)methoxy]pyrimidin-2-yl}imidazol-4-yl) methanol] | A′ (A′ = ≥10X) | – | 1 to 10
29 | O=C1OC(CO)CN1c1ncc(OCc2c(Cl)ccc(F)c2Cl)cn1 (centres unmarked) | C′ (C′ = <5X) | 1 to 10 | –
30 | O=C1CN(c2ccc(OCc3c(C(F)(F)F)cccc3C(F)(F)F)cn2)C(=O)N1 [1-(5-{[2,6-bis(trifluoromethyl)phenyl]methoxy}pyridin-2-yl)imidazolidine-2,4-dione] | A′ (A′ = ≥10X) | < 1 | –
31 | Cc1cccc(C(F)(F)F)c1COc1cnc(-n2ccc(C(N)=O)n2)nc1 | C′ (C′ = <5X) | < 1 | –
32 | Cc1ccc(F)c(C(F)(F)F)c1COc1ccc(-n2cnc(CO)n2)cc1 | A′ (A′ = ≥10X) | < 1 | –
33 | OCc1cn(-c2ncc(OCc3c(C(F)(F)F)cccc3C(F)(F)F)cn2)cn1 | A′ (A′ = ≥10X) | < 1 | –
34 | Cc1cccc(C(F)(F)F)c1COc1cnc(-n2ncc(CO)n2)nc1 | C′ (C′ = <5X) | < 1 | –
35 | Cc1c(F)ccc(C(F)(F)F)c1COc1ccc(-n2cnc(CO)n2)cc1 | C′ (C′ = <5X) | < 1 | –
36 | OCc1cn(-c2ncc(OCc3c(Cl)ccc(F)c3Cl)cn2)cn1 | C′ (C′ = <5X) | < 1 | –
37 | [2H]C([2H])(O)c1ncn(-c2ncc(OC([2H])([2H])c3c(Cl)cccc3C(F)(F)F)cn2)n1 | C′ (C′ = <5X) | 1 to 10 | –
38 | CC(=O)N1CCN(c2ncc(OCc3c(Cl)cccc3C(F)(F)F)cn2)C[C@@H]1CN | B′ (B′ = ≥5X to <10X) | 1 to 10 | –
39 | O=C1CN(c2ccc(OCc3c(C(F)(F)F)ccc(F)c3Cl)cn2)C(=O)N1 | C′ (C′ = <5X) | < 1 | –
40 | OCc1ncn(-c2ccc(OCc3c(C(F)(F)F)ccc(F)c3Cl)cn2)n1 | C′ (C′ = <5X) | < 1 | –
41 | N#CC1(O)CN(c2ncc(OCc3c(Cl)cccc3C(F)(F)F)cn2)C1 | A′ (A′ = ≥10X) | < 1 | –
42 | NC(=O)c1ccn(-c2ncc(OCc3c(C(F)(F)F)cccc3C(F)(F)F)cn2)n1 | A′ (A′ = ≥10X) | < 1 | –
43 | [2H]C([2H])(O)c1ccn(-c2ncc(OC([2H])([2H])c3c(Cl)cccc3Cl)cn2)n1 | C′ (C′ = <5X) | 1 to 10 | –
